Experimental data taken from ChEMBL document CHEMBL1130223 (J Med Chem, 1997).
Calls of active or inactive are those of the source. The calls are words filed in the database; no cut-off is given here.

What was measured:
NG108-15 [1] = test: Effective concentration for uptake of [14C]guanidinium on NG108-15 cells; assay type: functional, cell-based; details: Murinae
[2] = target: T1, Serotonin 3 (5-HT3) receptor (Rattus norvegicus) (UniProt P35563+Q9JJ16); test: Dose required to stimulate cardiac 5-HT3 receptors evaluated by using von Bezold-Jarisch reflex test in urethane-anesthetized rats after intravenous administration; assay type: functional, organism-based
[3] = target: T1, Serotonin 3 (5-HT3) receptor (Rattus norvegicus); test: The stimulation of cardiac 5-HT3 receptors evaluated by using von Bezold-Jarisch reflex test in urethane-anesthetized rats; Partial agonist; assay type: functional; details: filed as partial agonist
[4] = target: T2, Serotonin 3 (5-HT3) receptor (Rattus norvegicus, UniProt P35563+Q9JJ16); test: Inhibition of [3H]BRL-43694 binding to 5-hydroxytryptamine 3 receptor of rat cortical homogenate.
T2 sequence (P35563 whole entry): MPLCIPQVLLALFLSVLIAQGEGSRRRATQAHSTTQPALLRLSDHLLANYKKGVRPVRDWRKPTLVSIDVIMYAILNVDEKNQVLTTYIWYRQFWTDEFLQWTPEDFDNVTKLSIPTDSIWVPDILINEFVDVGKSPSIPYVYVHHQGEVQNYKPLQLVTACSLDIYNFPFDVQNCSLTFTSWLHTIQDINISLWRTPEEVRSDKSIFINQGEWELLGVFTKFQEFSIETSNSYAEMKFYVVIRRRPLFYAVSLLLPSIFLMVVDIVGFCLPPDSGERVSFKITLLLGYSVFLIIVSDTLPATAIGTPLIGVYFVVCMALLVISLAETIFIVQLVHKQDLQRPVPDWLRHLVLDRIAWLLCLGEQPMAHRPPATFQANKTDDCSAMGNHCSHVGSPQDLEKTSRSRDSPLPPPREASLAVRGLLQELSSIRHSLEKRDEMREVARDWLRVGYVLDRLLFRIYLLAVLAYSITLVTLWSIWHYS
T2 sequence (Q9JJ16 whole entry): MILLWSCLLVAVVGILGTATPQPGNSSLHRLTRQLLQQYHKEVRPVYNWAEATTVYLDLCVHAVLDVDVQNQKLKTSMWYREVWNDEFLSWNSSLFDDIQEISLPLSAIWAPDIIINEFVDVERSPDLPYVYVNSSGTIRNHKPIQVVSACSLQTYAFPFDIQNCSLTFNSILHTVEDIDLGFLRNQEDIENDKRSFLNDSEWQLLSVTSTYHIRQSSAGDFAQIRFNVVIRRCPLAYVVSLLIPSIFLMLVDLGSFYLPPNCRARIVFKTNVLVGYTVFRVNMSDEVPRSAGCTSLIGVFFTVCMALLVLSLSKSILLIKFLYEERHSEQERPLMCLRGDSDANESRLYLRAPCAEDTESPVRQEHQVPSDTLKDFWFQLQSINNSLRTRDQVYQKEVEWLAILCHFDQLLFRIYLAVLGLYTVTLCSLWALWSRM

NG108-15 [5] = test: Agonist/antagonist activity by observing the uptake of [14C]guanidinium, on the neuroblastoma-glioma hybrid NG108-15 cells; pure agonist; assay type: functional, cell-based; details: filed as agonist
[6] = target: T1, Serotonin 3 (5-HT3) receptor (Rattus norvegicus); test: The stimulation of cardiac 5-HT3 receptors evaluated by using von Bezold-Jarisch reflex test inurethane-anesthetized rats; Pure Antagonist; assay type: functional; details: filed as antagonist
[7] = target: T3, 5-hydroxytryptamine receptor 2C (Rattus norvegicus, UniProt P08909); test: Inhibition of radiolabeled [3H]mesulergine ligand binding to 5-hydroxytryptamine 2C receptor
T3 sequence (P08909 whole entry): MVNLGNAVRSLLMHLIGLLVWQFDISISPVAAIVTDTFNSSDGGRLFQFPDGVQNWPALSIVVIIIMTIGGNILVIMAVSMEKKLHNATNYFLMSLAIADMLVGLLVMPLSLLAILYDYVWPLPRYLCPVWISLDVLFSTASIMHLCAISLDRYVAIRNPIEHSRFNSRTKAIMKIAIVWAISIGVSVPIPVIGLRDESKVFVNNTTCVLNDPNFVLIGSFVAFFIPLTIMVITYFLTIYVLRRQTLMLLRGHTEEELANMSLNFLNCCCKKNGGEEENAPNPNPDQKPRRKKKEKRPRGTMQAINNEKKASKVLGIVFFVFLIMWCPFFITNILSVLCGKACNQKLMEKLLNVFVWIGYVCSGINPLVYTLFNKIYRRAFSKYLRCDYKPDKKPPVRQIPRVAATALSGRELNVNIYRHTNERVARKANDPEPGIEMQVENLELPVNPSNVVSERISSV

[8] = Potency to cross blood-brain barrier was assessed; assay type: functional
[9] = target: 5-hydroxytryptamine receptor 2A (Rattus norvegicus, UniProt P14842); test: Inhibition of radiolabeled [3H]-Ketanserin ligand binding to 5-hydroxytryptamine 2A receptor
5-hydroxytryptamine receptor 2A, sequence (P14842 whole entry): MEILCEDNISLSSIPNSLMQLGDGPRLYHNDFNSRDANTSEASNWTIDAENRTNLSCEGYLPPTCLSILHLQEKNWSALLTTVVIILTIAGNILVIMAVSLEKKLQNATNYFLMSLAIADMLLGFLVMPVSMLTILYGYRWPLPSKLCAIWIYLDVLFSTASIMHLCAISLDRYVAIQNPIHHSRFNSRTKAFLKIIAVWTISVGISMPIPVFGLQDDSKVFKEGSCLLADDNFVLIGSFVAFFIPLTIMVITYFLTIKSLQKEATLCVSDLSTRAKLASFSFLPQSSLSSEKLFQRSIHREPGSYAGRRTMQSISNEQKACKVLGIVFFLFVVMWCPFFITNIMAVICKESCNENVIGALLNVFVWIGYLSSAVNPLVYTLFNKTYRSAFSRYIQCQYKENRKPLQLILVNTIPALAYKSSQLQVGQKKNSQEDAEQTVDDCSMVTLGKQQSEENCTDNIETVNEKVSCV

[10] = target: T1, Serotonin 3 (5-HT3) receptor (Rattus norvegicus); test: Dose required to stimulate cardiac 5-HT3 receptors evaluated by using von Bezold-Jarisch reflex test in urethane-anesthetized rats; assay type: functional
[11] = target: T4, 5-hydroxytryptamine receptor 1A (Rattus norvegicus, UniProt P19327); test: Inhibition of radiolabeled [3H]-8-OH-DPAT ligand binding to 5-hydroxytryptamine 1A receptor
T4 sequence (P19327 whole entry): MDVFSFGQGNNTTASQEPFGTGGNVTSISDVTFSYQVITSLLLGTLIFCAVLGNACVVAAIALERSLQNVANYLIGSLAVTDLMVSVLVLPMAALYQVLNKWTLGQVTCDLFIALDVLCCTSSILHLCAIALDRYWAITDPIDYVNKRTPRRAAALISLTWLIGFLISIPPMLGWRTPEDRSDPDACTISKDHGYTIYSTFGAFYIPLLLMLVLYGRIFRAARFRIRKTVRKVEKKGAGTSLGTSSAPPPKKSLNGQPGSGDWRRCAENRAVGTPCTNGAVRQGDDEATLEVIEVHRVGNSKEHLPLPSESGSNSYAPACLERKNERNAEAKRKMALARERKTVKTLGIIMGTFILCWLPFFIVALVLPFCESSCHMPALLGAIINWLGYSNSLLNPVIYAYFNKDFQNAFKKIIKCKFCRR

[12] = target: 5-hydroxytryptamine receptor 1B (Rattus norvegicus, UniProt P28564); test: Inhibition of radiolabeled [3H]-5-HT ligand binding to 5-hydroxytryptamine 1B receptor
5-hydroxytryptamine receptor 1B, sequence (P28564 whole entry): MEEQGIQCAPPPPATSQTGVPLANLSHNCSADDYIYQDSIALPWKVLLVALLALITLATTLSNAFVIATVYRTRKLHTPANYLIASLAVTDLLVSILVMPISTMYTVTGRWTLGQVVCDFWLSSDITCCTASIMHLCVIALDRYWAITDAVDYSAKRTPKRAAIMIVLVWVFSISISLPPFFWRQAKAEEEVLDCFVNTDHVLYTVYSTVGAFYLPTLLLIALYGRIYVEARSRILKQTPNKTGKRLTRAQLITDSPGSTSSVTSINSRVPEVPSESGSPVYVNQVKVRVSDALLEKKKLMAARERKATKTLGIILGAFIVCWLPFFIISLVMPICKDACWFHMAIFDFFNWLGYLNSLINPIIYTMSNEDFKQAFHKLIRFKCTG

[13] = target: 5-hydroxytryptamine receptor 4 (Rattus norvegicus, UniProt Q62758); test: Inhibition of radiolabeled [3H]GR-113808 ligand binding to 5-hydroxytryptamine 4 receptor
5-hydroxytryptamine receptor 4, sequence (Q62758 whole entry): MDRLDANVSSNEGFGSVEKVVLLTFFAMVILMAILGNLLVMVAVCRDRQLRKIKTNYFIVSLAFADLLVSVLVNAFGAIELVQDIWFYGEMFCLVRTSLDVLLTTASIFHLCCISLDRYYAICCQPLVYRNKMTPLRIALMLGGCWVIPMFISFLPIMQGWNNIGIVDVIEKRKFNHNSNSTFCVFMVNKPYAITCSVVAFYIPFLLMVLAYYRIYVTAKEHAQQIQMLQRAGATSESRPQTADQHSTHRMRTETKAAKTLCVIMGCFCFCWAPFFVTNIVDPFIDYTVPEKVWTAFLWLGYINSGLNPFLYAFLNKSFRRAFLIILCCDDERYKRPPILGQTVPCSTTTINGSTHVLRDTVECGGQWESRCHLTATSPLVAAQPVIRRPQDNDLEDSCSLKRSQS

Rattus norvegicus = species on record: Rattus norvegicus; test: Inhibitory activity for 5-HT uptake was determined using [3H]- Citalopram; assay type: functional
[14] = target: T1, Serotonin 3 (5-HT3) receptor (Rattus norvegicus); test: The stimulation of cardiac 5-HT3 receptors evaluated by using von Bezold-Jarisch reflex test in urethane-anesthetized rats; pure antagonist; assay type: functional; details: filed as antagonist
[15] = target: T1, Serotonin 3 (5-HT3) receptor (Rattus norvegicus); test: The stimulation of cardiac 5-HT3 receptors evaluated by using von Bezold-Jarisch reflex test in urethane-anesthetized rats; partial agonist; assay type: functional; details: filed as partial agonist
[16] = target: T3, 5-hydroxytryptamine receptor 2C; test: Inhibition of radiolabeled [3H]-Ketanserin ligand binding to 5-hydroxytryptamine 2C receptor
[17] = target: T1, Serotonin 3 (5-HT3) receptor (Rattus norvegicus); test: The stimulation of cardiac 5-HT3 receptors evaluated by using von Bezold-Jarisch reflex test in urethane-anesthetized rats; pure agonist; assay type: functional; details: filed as agonist
[18] = target: T2, Serotonin 3 (5-HT3) receptor; test: Inhibition of [3H]BRL-43694 binding to 5-hydroxytryptamine 3 receptor of rat cortical homogenate; Not active at 10000 nm
NG108-15 [19] = test: Agonist/antagonist activity by observing the uptake of [14C]guanidinium, on the neuroblastoma-glioma hybrid NG108-15 cells; Not active at 10000 nm; assay type: functional, cell-based
[20] = target: T2, Serotonin 3 (5-HT3) receptor; test: Inhibition of radiolabeled [3H]-Zacopride ligand binding to 5-hydroxytryptamine 3 receptor; assay type: protein-complex assay

| Compound | EC50 (NG108-15 [1]) | ID50 [2] | IC50 [4] | Efficacy (NG108-15 [5]) | IC50 (Rattus norvegicus) | also measured |
| --- | --- | --- | --- | --- | --- | --- |
| CN1CCN(c2nc3cccc(F)c3n3cccc23)CC1 | 6.5 nM | 0.12 mg/kg | 0.44 nM | Agonist | – | Behavior [3]: Partial agonist |
| CN1CCN(c2nc3cc(F)ccc3n3cccc23)CC1 | 3 nM | – | 0.81 nM | Agonist | 232 nM | Behavior [6]: Antagonist; IC50 [7]: 413 nM; Ratio [8]: 17.5; IC50 [9]: 124 nM; ID50 [10]: 0.6 mg/kg; IC50 [11]: 138 nM; IC50 [12]: 371 nM; IC50 [13]: > 10000 nM |
| Fc1cccc2nc(N3CCNCC3)c3cccn3c12 | 98 nM | 0.07 mg/kg | 3.9 nM | Agonist | 1130 nM | IC50 [7]: 784 nM; IC50 [9]: 761 nM; IC50 [11]: 268 nM; IC50 [12]: 106 nM; IC50 [13]: > 10000 nM; Behavior [14]: Antagonist |
| CCCN1CCN(c2nc3cc(F)ccc3n3cccc23)CC1 | 580 nM | 0.2 mg/kg | 88 nM | Agonist | – | Behavior [15]: Partial agonist |
| NCCc1c[nH]c2ccc(O)cc12 [SEROTONIN] | – | – | – | – | 369 nM | – |
| C=CCN1CCN(c2nc3cc(F)ccc3n3cccc23)CC1 | 76 nM | 0.1 mg/kg | 22 nM | Agonist | – | Behavior [15]: Partial agonist |
| C=CCN1CCN(c2nc3ccccc3n3cccc23)CC1 | 8.2 nM | 0.18 mg/kg | 11 nM | Agonist | – | Behavior [15]: Partial agonist |
| c1ccc2nc(N3CCNCC3)ccc2c1 [QUIPAZINE] | 25 nM | – | 6.2 nM | Agonist | 204 nM | IC50 [7]: 470 nM; IC50 [9]: 1400 nM; IC50 [12]: 380 nM; IC50 [13]: > 10000 nM |
| Fc1ccc2c(c1)nc(N1CCNCC1)c1cccn12 | 3.5 nM | 0.01 mg/kg | 5.4 nM | Agonist | 203 nM | IC50 [7]: 2800 nM; Ratio [8]: 37.5; IC50 [9]: 489 nM; IC50 [11]: 151 nM; IC50 [12]: 167 nM; IC50 [13]: > 10000 nM; Behavior [14]: Antagonist |
| CCC(CC)NC(=O)[C@@H]1C=C2c3cccc4c3c(cn4C)C[C@H]2N(C)C1 [METHSERGIDE] | – | – | – | – | – | IC50 [16]: 3.1 nM |
| C=CCN1CCN(c2nc3cccc(F)c3n3cccc23)CC1 | 30 nM | 0.075 mg/kg | 28 nM | Agonist | – | Behavior [3]: Partial agonist |
| CN1CCN(c2cnc3ccccc3n2)CC1 | 510 nM | 0.06 mg/kg | 22 nM | Agonist | – | Behavior [17]: Agonist |
| CN1CCN(c2nc3cc(C(F)(F)F)ccc3n3cccc23)CC1 | – | – | – | – | – | IC50 [18]: Not Active; Efficacy (NG108-15 [19]): inactive |
| CN1CCN(c2nc3ccccc3n3cccc23)CC1 | 10 nM | – | – | Agonist | 214 nM | IC50 [7]: 780 nM; IC50 [9]: 43 nM; IC50 [11]: 89 nM; IC50 [12]: 232 nM; IC50 [13]: > 10000 nM |
| CCN1CCN(c2nc3ccccc3n3cccc23)CC1 | 8 nM | 0.1 mg/kg | 9 nM | Agonist | – | Behavior [14]: Antagonist |
| CCCN1CCN(c2nc3cccc(F)c3n3cccc23)CC1 | 73 nM | 0.3 mg/kg | 82 nM | Agonist | – | Behavior [3]: Partial agonist |
| CCCN1CCN(c2nc3ccccc3n3cccc23)CC1 | 8.5 nM | 0.24 mg/kg | 51 nM | Agonist | – | Behavior [3]: Partial agonist |
| Cc1[nH]c2ccc(O)cc2c1CCN | – | – | 779 nM | – | – | – |
| CN1CCN(c2nc3c(F)cccc3n3cccc23)CC1 | 4.7 nM | 0.12 mg/kg | 9.5 nM | Agonist | – | Behavior [3]: Partial agonist |
| CN1C[C@@H](NS(=O)(=O)N(C)C)C[C@@H]2c3cccc4c3c(cn4C)C[C@H]21 [MESULERGINE] | – | – | – | – | – | IC50 [20]: 2.13 nM |
